From ChEMBL document CHEMBL5465560, “Selectivity Literature for EUbOPEN Chemogenomic Library” (2024)
Each block holds one molecule with its values, some of them ahead of it.

Experiments:
[1] = biological target: Receptor-type tyrosine-protein kinase FLT3 (Homo sapiens) (UniProt P36888); conditions: at 10 µM
[2] = biological target: Cannabinoid receptor 2 (Homo sapiens) (UniProt P34972); assay: Selectivity interaction (Eurofins CEREP Diversity Profile (receptors and ion channels)) EUB0000279b CNR2; conditions: at 10 µM
[3] = tested on: Epidermal growth factor receptor (Homo sapiens), P00533 [UNDEFINED MUTATION]; assay: Selectivity interaction (Ambit KINOMEscan and KiNATiv profiling in Jurkat cells) EUB0000090b EGFR; assay type: cell-based; conditions: at 1 µM
Chain of Epidermal growth factor receptor (Homo sapiens), P00533 [UNDEFINED MUTATION] (P00533 whole entry, looked up, change not shown): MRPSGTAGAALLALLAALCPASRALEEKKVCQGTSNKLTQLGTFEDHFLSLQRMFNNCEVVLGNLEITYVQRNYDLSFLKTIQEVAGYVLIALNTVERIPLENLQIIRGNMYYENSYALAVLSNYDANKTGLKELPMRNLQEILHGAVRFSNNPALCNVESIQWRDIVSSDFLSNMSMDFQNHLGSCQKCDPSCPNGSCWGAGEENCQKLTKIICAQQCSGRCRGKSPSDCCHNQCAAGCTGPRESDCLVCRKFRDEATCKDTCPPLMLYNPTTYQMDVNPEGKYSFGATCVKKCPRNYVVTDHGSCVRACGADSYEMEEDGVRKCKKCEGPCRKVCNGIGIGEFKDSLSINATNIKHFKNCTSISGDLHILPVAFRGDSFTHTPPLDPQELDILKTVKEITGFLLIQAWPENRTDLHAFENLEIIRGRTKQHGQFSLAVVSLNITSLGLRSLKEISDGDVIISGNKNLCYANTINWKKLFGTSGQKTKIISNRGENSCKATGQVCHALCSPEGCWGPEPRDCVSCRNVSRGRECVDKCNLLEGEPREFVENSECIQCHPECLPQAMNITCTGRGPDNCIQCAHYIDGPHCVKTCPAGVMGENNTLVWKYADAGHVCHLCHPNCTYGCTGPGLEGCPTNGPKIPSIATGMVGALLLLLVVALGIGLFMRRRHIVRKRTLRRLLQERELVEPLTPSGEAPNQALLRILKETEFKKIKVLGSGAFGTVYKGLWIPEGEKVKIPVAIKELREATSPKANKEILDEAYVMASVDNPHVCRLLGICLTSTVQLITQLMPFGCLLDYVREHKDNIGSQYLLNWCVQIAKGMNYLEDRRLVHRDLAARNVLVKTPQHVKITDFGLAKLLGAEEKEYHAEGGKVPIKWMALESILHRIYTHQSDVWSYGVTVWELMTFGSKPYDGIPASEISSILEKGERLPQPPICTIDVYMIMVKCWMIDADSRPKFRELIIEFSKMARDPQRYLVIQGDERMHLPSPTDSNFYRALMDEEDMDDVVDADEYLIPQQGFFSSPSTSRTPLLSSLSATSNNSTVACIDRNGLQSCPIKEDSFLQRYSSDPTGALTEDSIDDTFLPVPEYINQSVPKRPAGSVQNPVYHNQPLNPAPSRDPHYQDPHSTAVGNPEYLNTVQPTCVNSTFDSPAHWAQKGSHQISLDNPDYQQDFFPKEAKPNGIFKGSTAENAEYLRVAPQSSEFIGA

[4] = biological target: Mitogen-activated protein kinase kinase kinase kinase 4 (Homo sapiens, UniProt O95819); assay: Selectivity interaction (Enzymatic assay) EUB0001199aCl MAP4K4
Chain of Mitogen-activated protein kinase kinase kinase kinase 4 (O95819 whole entry): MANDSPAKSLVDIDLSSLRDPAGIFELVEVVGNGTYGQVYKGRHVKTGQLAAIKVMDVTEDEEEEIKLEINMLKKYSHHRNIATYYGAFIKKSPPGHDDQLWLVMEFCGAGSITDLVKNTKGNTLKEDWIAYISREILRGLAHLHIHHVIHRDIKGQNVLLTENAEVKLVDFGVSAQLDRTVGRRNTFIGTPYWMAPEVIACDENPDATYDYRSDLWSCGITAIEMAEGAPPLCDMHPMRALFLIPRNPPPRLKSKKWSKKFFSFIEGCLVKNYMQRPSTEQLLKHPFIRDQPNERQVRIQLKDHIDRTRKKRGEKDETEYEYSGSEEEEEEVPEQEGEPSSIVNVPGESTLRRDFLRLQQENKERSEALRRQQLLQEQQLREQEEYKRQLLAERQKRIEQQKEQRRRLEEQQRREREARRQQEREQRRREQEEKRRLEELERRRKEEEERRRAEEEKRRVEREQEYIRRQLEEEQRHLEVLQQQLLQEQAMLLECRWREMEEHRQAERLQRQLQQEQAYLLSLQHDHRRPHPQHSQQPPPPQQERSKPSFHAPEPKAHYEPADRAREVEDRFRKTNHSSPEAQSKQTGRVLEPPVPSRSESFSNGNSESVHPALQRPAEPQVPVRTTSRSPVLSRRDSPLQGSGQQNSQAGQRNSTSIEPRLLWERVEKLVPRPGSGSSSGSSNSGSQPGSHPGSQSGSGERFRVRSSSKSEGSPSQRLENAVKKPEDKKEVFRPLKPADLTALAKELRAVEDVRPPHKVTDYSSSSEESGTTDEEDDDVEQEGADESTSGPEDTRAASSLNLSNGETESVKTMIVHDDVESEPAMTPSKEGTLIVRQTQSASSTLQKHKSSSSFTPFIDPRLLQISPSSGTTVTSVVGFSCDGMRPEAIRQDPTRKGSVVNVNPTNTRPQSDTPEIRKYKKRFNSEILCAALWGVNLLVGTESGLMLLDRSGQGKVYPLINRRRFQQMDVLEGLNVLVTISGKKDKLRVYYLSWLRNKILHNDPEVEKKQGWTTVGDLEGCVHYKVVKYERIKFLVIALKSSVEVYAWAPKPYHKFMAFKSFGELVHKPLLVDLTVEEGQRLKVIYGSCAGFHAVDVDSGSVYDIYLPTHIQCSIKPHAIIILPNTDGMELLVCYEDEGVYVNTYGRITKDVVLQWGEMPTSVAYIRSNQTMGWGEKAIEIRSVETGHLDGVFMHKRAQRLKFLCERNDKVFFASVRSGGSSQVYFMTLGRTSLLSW

[5] = tested on: Tyrosine-protein kinase ABL1 (Homo sapiens), P00519 [F317L]; assay: Selectivity interaction (KinomeScan (DiscoverX)) EUB0000655a ABL1; conditions: at 10 µM
[6] = biological target: T1, Serine/threonine-protein kinase PLK4 (Homo sapiens) (UniProt O00444); assay: Selectivity interaction (KinomeScan (DiscoverX)) EUB0000618a PLK4; conditions: at 10 µM
T1 sequence (whole entry): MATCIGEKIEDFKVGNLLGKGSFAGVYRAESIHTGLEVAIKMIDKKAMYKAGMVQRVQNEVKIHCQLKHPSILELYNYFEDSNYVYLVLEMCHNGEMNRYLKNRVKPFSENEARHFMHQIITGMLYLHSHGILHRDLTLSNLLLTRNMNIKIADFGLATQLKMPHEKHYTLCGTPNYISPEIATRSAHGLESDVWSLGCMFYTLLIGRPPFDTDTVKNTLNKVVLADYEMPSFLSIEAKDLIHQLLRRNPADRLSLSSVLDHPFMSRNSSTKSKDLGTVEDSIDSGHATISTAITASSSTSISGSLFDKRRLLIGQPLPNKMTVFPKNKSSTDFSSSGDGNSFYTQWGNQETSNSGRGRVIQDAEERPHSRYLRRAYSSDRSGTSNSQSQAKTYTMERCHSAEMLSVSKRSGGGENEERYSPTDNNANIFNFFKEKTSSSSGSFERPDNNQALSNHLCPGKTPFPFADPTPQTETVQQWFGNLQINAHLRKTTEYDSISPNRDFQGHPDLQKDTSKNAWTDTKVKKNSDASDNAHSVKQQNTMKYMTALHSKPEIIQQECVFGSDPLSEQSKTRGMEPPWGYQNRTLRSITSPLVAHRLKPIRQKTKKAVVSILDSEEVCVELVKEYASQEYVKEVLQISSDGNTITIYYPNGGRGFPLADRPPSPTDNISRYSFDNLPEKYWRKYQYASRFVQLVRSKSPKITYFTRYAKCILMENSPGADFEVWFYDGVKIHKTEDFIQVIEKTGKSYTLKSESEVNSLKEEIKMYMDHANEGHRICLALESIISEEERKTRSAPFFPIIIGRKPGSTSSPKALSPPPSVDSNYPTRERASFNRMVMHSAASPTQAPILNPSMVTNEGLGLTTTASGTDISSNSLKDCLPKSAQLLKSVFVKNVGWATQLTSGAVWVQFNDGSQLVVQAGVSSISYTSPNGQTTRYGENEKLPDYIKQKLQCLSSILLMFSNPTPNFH

[7] = biological target: Mitogen-activated protein kinase 11 (Homo sapiens) (UniProt Q15759); assay: Selectivity interaction (SelectScreen profiling (Invitrogen)) EUB0000607a MAPK11; conditions: at 2 µM
[8] = biological target: Tyrosine-protein kinase HCK (Homo sapiens) (UniProt P08631); assay: Selectivity interaction (SelectScreen profiling (Invitrogen)) EUB0000607a HCK; conditions: at 2 µM
[9] = biological target: Mitogen-activated protein kinase 14 (Homo sapiens, UniProt Q16539); assay: Selectivity interaction (KinomeScan (DiscoverX)) EUB0001619a MAPK14; conditions: at 1 µM
[10] = biological target: Tyrosine-protein kinase ABL1 (Homo sapiens, UniProt P00519); assay: Selectivity interaction (Kinase panel (enzymatic assay)) EUB0000595a ABL1
Chain of Tyrosine-protein kinase ABL1 (P00519 whole entry): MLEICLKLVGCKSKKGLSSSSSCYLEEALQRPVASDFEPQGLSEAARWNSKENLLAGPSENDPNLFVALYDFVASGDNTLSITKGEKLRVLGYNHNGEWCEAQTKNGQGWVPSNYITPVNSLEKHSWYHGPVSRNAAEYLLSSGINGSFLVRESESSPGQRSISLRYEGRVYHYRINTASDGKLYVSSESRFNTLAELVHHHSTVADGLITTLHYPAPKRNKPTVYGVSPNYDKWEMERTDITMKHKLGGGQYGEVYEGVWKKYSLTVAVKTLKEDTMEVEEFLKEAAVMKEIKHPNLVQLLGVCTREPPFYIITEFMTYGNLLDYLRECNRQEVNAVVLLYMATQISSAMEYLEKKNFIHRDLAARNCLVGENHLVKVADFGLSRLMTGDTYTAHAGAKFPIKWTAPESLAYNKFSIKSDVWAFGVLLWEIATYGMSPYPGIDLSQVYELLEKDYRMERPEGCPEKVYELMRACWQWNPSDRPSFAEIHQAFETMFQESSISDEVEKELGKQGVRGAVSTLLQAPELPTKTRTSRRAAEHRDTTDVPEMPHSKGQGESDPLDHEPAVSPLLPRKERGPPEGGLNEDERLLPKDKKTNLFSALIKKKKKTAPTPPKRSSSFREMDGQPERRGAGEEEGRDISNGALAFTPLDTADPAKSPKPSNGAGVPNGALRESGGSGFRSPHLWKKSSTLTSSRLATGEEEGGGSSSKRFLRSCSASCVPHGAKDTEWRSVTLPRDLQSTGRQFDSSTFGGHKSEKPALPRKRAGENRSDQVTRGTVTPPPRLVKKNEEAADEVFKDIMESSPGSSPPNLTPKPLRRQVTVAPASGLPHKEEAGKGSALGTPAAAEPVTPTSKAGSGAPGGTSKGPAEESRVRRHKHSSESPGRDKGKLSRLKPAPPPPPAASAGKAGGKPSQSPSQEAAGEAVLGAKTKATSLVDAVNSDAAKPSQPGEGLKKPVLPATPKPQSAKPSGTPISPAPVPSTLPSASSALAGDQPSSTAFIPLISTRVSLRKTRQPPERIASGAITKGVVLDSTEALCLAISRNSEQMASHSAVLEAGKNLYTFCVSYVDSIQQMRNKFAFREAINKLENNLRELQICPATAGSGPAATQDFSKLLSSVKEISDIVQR

[11] = biological target: Histone-lysine N-methyltransferase ASH1L (Homo sapiens) (UniProt Q9NR48); conditions: at 10 µM
[12] = biological target: T2, Serine/threonine-protein kinase NLK (Homo sapiens) (UniProt Q9UBE8); conditions: at 10 µM
T2 sequence (whole entry): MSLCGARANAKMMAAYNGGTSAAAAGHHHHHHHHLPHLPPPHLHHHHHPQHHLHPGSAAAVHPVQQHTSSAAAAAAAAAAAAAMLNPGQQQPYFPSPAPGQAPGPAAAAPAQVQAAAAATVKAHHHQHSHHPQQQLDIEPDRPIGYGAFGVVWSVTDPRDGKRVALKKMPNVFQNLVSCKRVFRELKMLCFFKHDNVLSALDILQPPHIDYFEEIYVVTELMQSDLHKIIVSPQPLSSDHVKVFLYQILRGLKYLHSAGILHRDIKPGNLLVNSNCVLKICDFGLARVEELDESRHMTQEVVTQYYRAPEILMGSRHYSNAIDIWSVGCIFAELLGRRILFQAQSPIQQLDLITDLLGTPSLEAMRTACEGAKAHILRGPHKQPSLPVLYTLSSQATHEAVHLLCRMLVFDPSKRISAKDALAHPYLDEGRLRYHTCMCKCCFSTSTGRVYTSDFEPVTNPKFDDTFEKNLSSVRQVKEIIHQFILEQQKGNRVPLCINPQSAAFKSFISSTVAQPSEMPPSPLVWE

[13] = Selectivity interaction (KinomeScan (DiscoverX)) EUB0000229b CDPK1; conditions: at 1 µM
[14] = biological target: Receptor-interacting serine/threonine-protein kinase 2 (Homo sapiens, UniProt O43353); assay: Selectivity interaction (LanthaScreen Eu Kinase Binding Assay) EUB0001632a RIPK2; conditions: at 10 µM
Chain of Receptor-interacting serine/threonine-protein kinase 2 (O43353 whole entry): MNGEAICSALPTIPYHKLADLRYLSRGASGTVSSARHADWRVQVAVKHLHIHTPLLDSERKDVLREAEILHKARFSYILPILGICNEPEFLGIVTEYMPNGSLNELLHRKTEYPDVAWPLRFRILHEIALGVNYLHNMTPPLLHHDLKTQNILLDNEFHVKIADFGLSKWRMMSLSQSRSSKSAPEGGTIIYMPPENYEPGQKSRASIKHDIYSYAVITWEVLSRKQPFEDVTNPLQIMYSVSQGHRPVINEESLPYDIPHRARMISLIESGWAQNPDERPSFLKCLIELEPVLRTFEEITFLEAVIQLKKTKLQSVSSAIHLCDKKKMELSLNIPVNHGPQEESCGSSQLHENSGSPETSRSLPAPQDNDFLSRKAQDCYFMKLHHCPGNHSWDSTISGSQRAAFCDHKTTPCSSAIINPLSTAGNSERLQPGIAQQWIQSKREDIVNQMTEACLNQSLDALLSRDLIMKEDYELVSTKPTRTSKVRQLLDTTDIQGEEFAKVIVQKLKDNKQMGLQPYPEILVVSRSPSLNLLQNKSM

Chain of Receptor-type tyrosine-protein kinase FLT3 (Homo sapiens) (P36888 whole entry): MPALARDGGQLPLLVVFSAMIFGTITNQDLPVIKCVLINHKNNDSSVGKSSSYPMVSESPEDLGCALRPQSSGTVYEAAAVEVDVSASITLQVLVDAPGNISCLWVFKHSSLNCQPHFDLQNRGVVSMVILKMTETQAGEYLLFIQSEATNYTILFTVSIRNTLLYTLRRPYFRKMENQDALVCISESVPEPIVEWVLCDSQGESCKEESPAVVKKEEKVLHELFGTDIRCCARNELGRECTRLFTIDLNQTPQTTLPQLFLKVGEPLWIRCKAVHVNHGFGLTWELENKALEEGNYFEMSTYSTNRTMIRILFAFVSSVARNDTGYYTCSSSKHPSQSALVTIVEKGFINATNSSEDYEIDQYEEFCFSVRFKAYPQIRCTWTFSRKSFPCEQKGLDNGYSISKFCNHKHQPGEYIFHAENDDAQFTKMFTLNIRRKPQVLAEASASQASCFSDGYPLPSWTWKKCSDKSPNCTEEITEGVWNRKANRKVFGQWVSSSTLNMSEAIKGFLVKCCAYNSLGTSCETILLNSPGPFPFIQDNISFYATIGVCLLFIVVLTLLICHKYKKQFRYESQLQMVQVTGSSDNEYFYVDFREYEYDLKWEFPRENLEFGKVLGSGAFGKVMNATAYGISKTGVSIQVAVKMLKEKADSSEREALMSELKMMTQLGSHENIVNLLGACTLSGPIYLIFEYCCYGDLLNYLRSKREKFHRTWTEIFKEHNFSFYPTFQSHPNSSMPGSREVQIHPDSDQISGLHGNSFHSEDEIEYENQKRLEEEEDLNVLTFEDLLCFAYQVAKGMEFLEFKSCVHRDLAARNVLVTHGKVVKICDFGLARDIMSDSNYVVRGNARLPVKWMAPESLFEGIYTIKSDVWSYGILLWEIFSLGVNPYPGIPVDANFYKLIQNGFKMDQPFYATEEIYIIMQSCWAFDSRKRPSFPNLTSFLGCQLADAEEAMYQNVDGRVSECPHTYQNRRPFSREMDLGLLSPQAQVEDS

- % of control [1]: 100%
Structure (SMILES): CCN(CC)CCCCNc1ncc2cc(-c3cc(OC)cc(OC)c3)c(NC(=O)NC(C)(C)C)nc2n1

- % of control [2]: 107%
Structure (SMILES): CC(=O)c1cc(-c2ccccc2OCC2CC2)c2ncccn12

Structure (SMILES): CN(C)C/C=C/C(=O)Nc1ccc(C(=O)N2CCCC(Nc3ncc(Cl)c(-c4c[nH]c5ccccc45)n3)C2)cc1 (centres undefined)
- % of control [3]: 80%

- IC50 [4]: 873 nM
Structure (SMILES): CN1Cc2nccc(-c3cn(C)nc3-c3ccc(F)cc3)c2C1=O

Structure (SMILES): CN(C)CCOc1ccc(-c2nc(-c3ccncc3)c(-c3ccc4c(c3)CC/C4=N\O)[nH]2)cc1
- % of control [5]: 59%

Structure (SMILES): O[C@H]1CC[C@H](Nc2ncc3nc(Nc4c(F)cc(F)cc4F)n([C@H]4CCOC4)c3n2)CC1
- % of control [6]: 100%

Structure (SMILES): CNC(=O)Nc1ccc(-c2nc(N3CC4CCC(C3)O4)c3cnn(C4CCC5(CC4)OCCO5)c3n2)cc1
- % of inhibition [7]: 2%
- % of inhibition [8]: 5%

Structure (SMILES): N#Cc1cccc(-c2c[nH]c3ncnc(N4CCOCC4)c23)c1
- % of control [9]: 100%

Structure (SMILES): COCC(=O)NC/C=C/c1ccc2ncnc(Nc3ccc(Oc4ccc(C)nc4)c(C)c3)c2c1 [CP-724714]
- IC50 [10]: > 10000 nM

- % activity [11]: > 90%
Structure (SMILES): CNCCN1CCC(c2cc(CN(C)C(=O)c3cccc(Oc4ccccc4)c3)ccn2)CC1

Structure (SMILES): Cc1cc([C@@H](C)Nc2ccccc2C(=O)O)c2nc(N3CCOCC3)cc(=O)n2c1 [AZD-6482]
- % of control [12]: 94%

Structure (SMILES): COc1cc(N(C)c2ccnc3ccc(C(F)(F)F)cc23)cc(OC)c1OC
- % binding [13]: 74%

- % of inhibition [14]: -13.3%
Structure (SMILES): Cn1cc(-n2cnc3c(NCc4nc5cc(Cl)c(Cl)cc5[nH]4)nc(N4CCOCC4)nc32)cn1
